Data: patent US20220265656A1, “COMBINATION THERAPIES WITH IRE1 SMALL MOLECULE INHIBITORS” (Cornell University, priority 2019, published 2022)
Counter-ions that a name gives are not always drawn.

What was measured:
IRE1a [1] = molecular target: T1, IRE1a (Homo sapiens, UniProt O75460); assay: IRE1a Endoribonuclease Nanoluciferase Assay in 293T cells; assay type: cell-based; design: endogenous in cells; host or cells: 293T cells; settings: XBP1 luciferase reporter in 293T cells, ER stressor
Method: Compounds disclosed herein were assessed for disruption of IRE1 signaling using a IRE1a Endoribonuclease Nanoluciferase Assay. Briefly, 2.5×10^6 293T cells were seeded in a 10 cm^2 tissue culture plate. About 24 hours later, the cells were transfected with Effectene. In a 15 mL tube, the following was added: 2 ug XBP1 luciferase reporter plasmid (PGK-Luc2-P2A-XBP1u-Nanoluciferase-PEST); 300 ul EC buffer; and 16 ul Enhancer, followed by incubation at room temp for 5 minutes. Next, 60 ul Effectene (Qiagen 301427) was added, followed by incubation at room temperature for 10 minutes, 2.6 mL cDMEM media was added. Old media was aspirated from the cells, followed by addition of 7 mL fresh media. Full transfection mixture was added dropwise to cells. Cells were incubated for 6 hours, followed by trypsinization, centrifugation and resuspension in 11 mL fresh cDMEM media, 100 uL of cells were plated per a well in a 96 well plate. A day later, ER stressors of choice +/−inhibitors were added. To harvest, media was aspirated from cells completely, then 50 uL 1× passive lysis buffer (Promega: E1941) was added per well and put on shaker (300 rpm) for 30 minutes at room temperature. Cells were centrifuged, and 15 uL sample per well was added to a new, opaque white 384 well plate (Corning 3570), 15 uL OneGlo (nanoluciferase kit, Promega N1630) was added. Plates were spun down, placed on shaker (300 rpm) for 10 minutes. Plates were read on luminometer, 1000 ms integration time per well, 15 uL Stop and Glo (nanoluciferase kit) was added. Plates were spun down, placed on shaker (300 rpm) for 10 minutes. Plates were read on luminometer, 1000 ms second integration time per well. Recordings are provided below in Table 4.

IRE1a [2] = molecular target: T1, IRE1a; assay: In vitro FRET assay (IRE1a cleavage of XBP1 RNA probe); assay type: biochemical; design: purchased SignalChem; settings: 2 nM IRE1a
Method: In vitro FRET assay was performed to evaluate the ability of select compounds to inhibit IRE1, the results of which are summarized in Table 3. To perform the in vitro FRET assay, 1× complete assay buffer (CAB; […], 50 mM sodium citrate pH 7.15, 1 mM magnesium acetate, 0.02% tween 20) was used to dilute SignalChem IRE1a protein to a final concentration of 2 nM. Selected compounds were serially diluted with DMSO in a non-binding black 384-well plate for a total of 15 ul in each well, 2 ul of the serially diluted compound or DMSO control were then added to new wells containing 98 ul of 1×CAB, for a total volume of 100 ul, 10 ul of which were then transferred to wells of a new plate, 5 ul of the diluted IRE1a was then added to each well, 5 ul of a […] XBP1 RNA probe was then added to each well. Fluorescence was then read over 30 minutes in kinetic mode (485/515 nm).
Two RNA probes were used, XBP1 wildtype (SEQ ID NO: 2) which is able to be spliced by active IRE1a or XBP1 mutant (SEQ ID NO: 3) which is unable to be spliced. Each probe contained a 5′ 6-FAM modification and a 3′ IOWA Black FQ modification. […]

T1 sequence (O75460 19-977): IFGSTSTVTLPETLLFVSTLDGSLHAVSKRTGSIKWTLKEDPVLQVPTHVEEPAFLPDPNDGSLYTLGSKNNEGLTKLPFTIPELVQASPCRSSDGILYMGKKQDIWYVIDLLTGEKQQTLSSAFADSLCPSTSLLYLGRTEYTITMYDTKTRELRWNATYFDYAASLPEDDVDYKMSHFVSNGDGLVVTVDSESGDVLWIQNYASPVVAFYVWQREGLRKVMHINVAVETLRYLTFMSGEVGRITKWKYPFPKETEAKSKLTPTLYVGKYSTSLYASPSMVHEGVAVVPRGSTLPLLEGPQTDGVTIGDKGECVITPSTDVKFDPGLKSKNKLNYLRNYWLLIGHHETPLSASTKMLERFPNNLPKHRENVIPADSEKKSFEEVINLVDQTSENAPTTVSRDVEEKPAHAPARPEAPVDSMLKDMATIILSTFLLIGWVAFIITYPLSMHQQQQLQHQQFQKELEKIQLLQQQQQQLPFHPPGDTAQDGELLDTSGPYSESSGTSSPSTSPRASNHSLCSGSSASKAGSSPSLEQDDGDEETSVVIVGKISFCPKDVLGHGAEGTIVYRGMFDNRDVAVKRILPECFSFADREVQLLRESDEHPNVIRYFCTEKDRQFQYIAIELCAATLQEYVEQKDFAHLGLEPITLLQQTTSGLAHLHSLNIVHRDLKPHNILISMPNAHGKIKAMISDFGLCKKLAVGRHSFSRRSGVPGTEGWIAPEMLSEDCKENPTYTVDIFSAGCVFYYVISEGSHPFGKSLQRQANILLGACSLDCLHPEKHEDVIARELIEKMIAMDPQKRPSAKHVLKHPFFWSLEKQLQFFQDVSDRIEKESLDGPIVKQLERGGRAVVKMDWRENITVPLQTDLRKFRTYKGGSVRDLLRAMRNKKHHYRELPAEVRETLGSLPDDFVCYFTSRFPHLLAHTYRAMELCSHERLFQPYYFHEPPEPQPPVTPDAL

SMILES | EC50 (IRE1a [1]) | IC50 (IRE1a [2]) | Mean EC50 (IRE1a [1])
CCc1cc(-c2cc(NS(=O)(=O)c3ccccc3Cl)n[nH]2)cc2cnc(N[C@H]3CC[C@H](N)CC3)nc12 [29; Formic Acid Salt] | 100 to 10000 nM | – | –
CCc1cc(-c2ccc(N(C)S(=O)(=O)c3ccccc3Cl)cc2C)cc2cnc(N[C@H]3CC[C@H](N)CC3)nc12 [31; Formic Acid Salt] | – | 100 to 10000 nM | –
N[C@H]1CC[C@H](Nc2ncc3cc(-c4cc(F)c(NS(=O)(=O)c5ccccc5Cl)cc4F)ccc3n2)CC1 [53; Formic Acid Salt] | ≤ 5 nM | ≤ 5 nM | –
CCc1cc(-c2ccc(NS(=O)(=O)c3ccccc3Cl)nn2)cc2cnc(N[C@H]3CC[C@H](NC)CC3)nc12 [61; Formic Acid Salt] | ≤ 5 nM | ≤ 5 nM | –
CCc1cc(-c2ccc(NS(=O)(=O)c3ccccc3Cl)nn2)cc2cnc(N[C@H]3CC[C@H](N(C)C)CC3)nc12 [64; Formic Acid Salt] | ≤ 5 nM | ≤ 5 nM | –
CCc1cc(-c2ccc(NS(=O)(=O)c3ccccc3Cl)c(F)c2)cc2cnc(N[C@@H]3CCC[C@H](N)C3)nc12 [72; Formic Acid Salt] | 100 to 10000 nM | – | –
N[C@H]1CCC[C@@H](Nc2ncc3cc(-c4ccc(NS(=O)(=O)c5ccccc5Cl)c(F)c4)ccc3n2)C1 [75; Formic Acid Salt] | 100 to 10000 nM | ≤ 5 nM | –
N[C@H]1CC[C@@H](Nc2ncc3cc(-c4ccc(NS(=O)(=O)c5ccccc5Cl)c(F)c4)ccc3n2)C1 [80; Formic Acid Salt] | 100 to 10000 nM | – | –
CCc1cc(-c2ccc(NS(=O)(=O)c3ccccc3Cl)c(F)c2)cc2cnc(N[C@H]3CC[C@H](N4CCCC4)CC3)nc12.O=CO [88; Formic Acid Salt] | – | – | ,
N[C@H]1CC[C@H](Nc2ncc3cc(-c4nnc(NS(=O)(=O)c5ccccc5Cl)s4)ccc3n2)CC1 [89; Formic Acid Salt] | 100 to 10000 nM | – | –
CCc1cc(-c2cnc(NS(=O)(=O)c3ccccc3Cl)cc2OC)cc2cnc(N[C@H]3CC[C@H](N)CC3)nc12 [92; Formic Acid Salt] | 100 to 10000 nM | – | –
CCc1cc(-c2cnc(NS(=O)(=O)c3ccccc3Cl)c(F)c2)cc2cnc(N[C@H]3CC[C@H](N(C)C)CC3)nc12 [95; Formic Acid Salt] | ≤ 5 nM | ≤ 5 nM | –
CCc1cc(-c2ccc(NS(=O)(=O)c3ccccc3Cl)nc2OC)cc2cnc(N[C@H]3CC[C@H](N(C)C)CC3)nc12 [99; Formic Acid Salt] | ≤ 5 nM | ≤ 5 nM | –
CCc1nc(NS(=O)(=O)c2ccccc2Cl)ccc1-c1cc(CC)c2nc(N[C@H]3CC[C@H](N(C)C)CC3)ncc2c1 [117; Formic Acid Salt] | ≤ 5 nM | ≤ 5 nM | –
CCc1cc(-c2ccc(NS(=O)(=O)c3ccccc3C)nc2OC)cc2cnc(N[C@H]3CC[C@H](N(C)C)CC3)nc12 [119; Formic Acid Salt] | ≤ 5 nM | ≤ 5 nM | –
CCc1cc(-c2ccc(NS(=O)(=O)c3ccccc3Cl)nc2C)cc2cnc(N[C@H]3CC[C@H](N(C)CC(F)(F)F)CC3)nc12 [126; Formic Acid Salt] | – | 50 to 100 nM | –
CCc1cc(-c2cc(F)c(NS(=O)(=O)c3ccccc3Cl)nc2OC)cc2cnc(N[C@H]3CC[C@H](NC)CC3)nc12 [127; Formic Acid Salt] | ≤ 5 nM | ≤ 5 nM | –
CCc1cc(-c2cc(F)c(NS(=O)(=O)c3ccccc3Cl)nc2OC)cc2cnc(N[C@H]3CC[C@H](N(C)C)CC3)nc12 [128; Formic Acid Salt] | ≤ 5 nM | ≤ 5 nM | –
CCc1cc(-c2ccc(NS(=O)(=O)c3ccccc3Cl)nc2C)cc2cnc(N[C@H]3CC[C@H](N(C)CC4CCC4)CC3)nc12 [130; Formic Acid Salt] | ≤ 5 nM | ≤ 5 nM | –
Cc1nc(NS(=O)(=O)c2ccccc2Cl)ccc1-c1cc(C(C)(F)F)c2nc(N[C@H]3CC[C@H](N(C)C)CC3)ncc2c1 [131; Formic Acid Salt] | ≤ 5 nM | ≤ 5 nM | –
CCc1cc(-c2ccc(NS(=O)(=O)c3ccccc3Cl)nc2C)cc2cnc(N[C@H]3CC[C@H](N(C)CCOC)CC3)nc12 [132; Formic Acid Salt] | ≤ 5 nM | ≤ 5 nM | –

SMILES | EC50 (IRE1a [1]) | IC50 (IRE1a [2]) | Mean EC50 (IRE1a [1])
COc1nc(NS(=O)(=O)c2ccccc2Cl)ccc1-c1cc(C)c2nc(N[C@H]3CC[C@H](N(C)C)CC3)ncc2c1 [133; Formic Acid Salt] | ≤ 5 nM | ≤ 5 nM | –
COc1nc(NS(=O)(=O)c2ccccc2Cl)ccc1-c1cc(C(F)(F)F)c2nc(N[C@H]3CC[C@H](N(C)C)CC3)ncc2c1 [135; Formic Acid Salt] | ≤ 5 nM | ≤ 5 nM | –
COCc1cc(-c2ccc(NS(=O)(=O)c3ccccc3Cl)nc2OC)cc2cnc(N[C@H]3CC[C@H](N(C)C)CC3)nc12 [137; Formic Acid Salt] | ≤ 5 nM | ≤ 5 nM | –
COc1nc(NS(=O)(=O)c2ccccc2Cl)ccc1-c1cc(C)c2nc(N[C@H]3CC[C@@H](N(C)C)CC3)ncc2c1 [139; Formic Acid Salt] | – | 5 to 50 nM | –
CCc1cc(-c2ccc(NS(=O)(=O)c3ccccc3Cl)nc2OC)cc2cnc(N[C@H]3CC[C@@H](N(C)C)CC3)nc12 [141; Formic Acid Salt] | 100 to 10000 nM | ≤ 5 nM | –
CCc1cc(-c2cc(F)c(NS(=O)(=O)c3ccccc3Cl)nc2OC)cc2cnc(N[C@H]3CC[C@@H](N(C)C)CC3)nc12 [142; Formic Acid Salt] | – | 5 to 50 nM | –
CCc1cc(-c2ccc(NS(=O)(=O)c3ccccc3Cl)nc2OC)cc2cnc(N[C@H]3CC[C@@](C)(N(C)C)CC3)nc12 [143; Formic Acid Salt] | – | 5 to 50 nM | –
COc1nc(NS(=O)(=O)c2ccccc2Cl)c(F)cc1-c1cc(C)c2nc(N[C@H]3CC[C@H](N(C)C)CC3)ncc2c1 [145; Formic Acid Salt] | ≤ 5 nM | ≤ 5 nM | –
COc1nc(NS(=O)(=O)c2ccccc2Cl)c(F)cc1-c1cc(C)c2nc(N[C@H]3CC[C@@H](N(C)C)CC3)ncc2c1 [147; Formic Acid Salt] | – | 5 to 50 nM | –
COc1nc(NS(=O)(=O)c2ccccc2Cl)ccc1-c1cc(F)c2nc(N[C@H]3CC[C@H](N(C)C)CC3)ncc2c1 [148; Formic Acid Salt] | ≤ 5 nM | ≤ 5 nM | –
COc1nc(NS(=O)(=O)c2ccccc2Cl)c(F)cc1-c1ccc2nc(N[C@H]3CC[C@H](N(C)C)CC3)ncc2c1 [149; Formic Acid Salt] | 5 to 50 nM | ≤ 5 nM | –
CN[C@H]1CC[C@H](Nc2ncc3cc(-c4cc(F)c(NS(=O)(=O)c5ccccc5Cl)nc4OC)ccc3n2)CC1 [150; Formic Acid Salt] | 5 to 50 nM | ≤ 5 nM | –
CCc1cc(-c2ccc(NS(=O)(=O)c3ccccc3Cl)nc2C)cc2cnc(N[C@H]3CC[C@H](N(C)C)C[C@@H]3F)nc12 [151; Formic Acid Salt] | ≤ 5 nM | ≤ 5 nM | –
CCc1cc(-c2ccc(NS(=O)(=O)c3cccc(Cl)c3Cl)nc2C)cc2cnc(N[C@H]3CC[C@H](N(C)C)CC3)nc12 [152; Formic Acid Salt] | ≤ 5 nM | ≤ 5 nM | –
Cc1nc(NS(=O)(=O)c2ccccc2Cl)c(F)cc1-c1ccc2nc(N[C@H]3CC[C@H](N(C)C)CC3)ncc2c1 [153; Formic Acid Salt] | 5 to 50 nM | ≤ 5 nM | –
CCc1cc(-c2cnc(NS(=O)(=O)c3ccccc3Cl)nc2OC)cc2cnc(N[C@H]3CC[C@H](N(C)C)CC3)nc12 [154; Formic Acid Salt] | ≤ 5 nM | ≤ 5 nM | –
COc1nc(NS(=O)(=O)c2ccccc2Cl)c(F)cc1-c1cc(F)c2nc(N[C@H]3CC[C@H](N(C)C)CC3)ncc2c1 [155; Formic Acid Salt] | 50 to 100 nM | ≤ 5 nM | –
Cc1nc(NS(=O)(=O)c2ccccc2Cl)c(F)cc1-c1cc(F)c2nc(N[C@H]3CC[C@H](N(C)C)CC3)ncc2c1 [156; Formic Acid Salt] | – | 100 to 10000 nM | –
CCc1cc(-c2ccc(NS(=O)(=O)c3cccc(F)c3Cl)nc2C)cc2cnc(N[C@H]3CC[C@H](N(C)C)CC3)nc12 [158; Formic Acid Salt] | ≤ 5 nM | ≤ 5 nM | –
CCc1cc(-c2nnc(NS(=O)(=O)c3ccccc3Cl)cc2OC)cc2cnc(N[C@H]3CC[C@H](N(C)C)CC3)nc12 [159; Formic Acid Salt] | 5 to 50 nM | ≤ 5 nM | –
